This note sets out measurements from patent US7638540B2, “Benzofuran compound and medicinal composition containing the same” (The New Industry Research Organization, priority 2003, dated 2009).

One data set has as its system LTB4 receptor. Put plainly: TXB2 release from guinea pig eosinophils stimulated with LTB4 (LTB4 receptor antagonist activity). The class given is cell-based. The settings on record: 10^−3 M test compound (37.5 μl) added to 300 μl cell suspension, then 10^−7 M LTB4 (37.5 μl), 37° C. 15 min, positive control 100, negative control 0, N.D. = TXB2 concentration at measurement limit or less. How it is done: The LTB4 receptor antagonist activity of the test compound was examined using, as an index, thromboxane B2 (TXB2) released when stimulating eosinophil of guinea pig with LTB4.
Based on the method described in Japanese Journal of Pharmacology, vol. 70, p. 337-345 (1996) etc., eosinophils of guinea pig were prepared. A cell suspension (300 μl, 1.25×10^6 cells/ml) was placed in a 5 ml polypropylene test tube and, after incubation at 37° C. for 5 min., 10^−3 M test compound (37.5 μl) dissolved in 0.1% DMSO aqueous solution was added and the cells were continuously cultured for 5 min. Then, 10^−7 M LTB4 (37.5 μl) was added to induce the reaction and the cells were incubated at 37° C. for 15 min. The reaction was quenched in ice water, and the culture was centrifuged at 4° C., 3000 rpm for 10 min. The obtained supernatant was prepared as a sample for TXB2 measurement, and preserved at −80° C. before use for the measurement. The quantitation of TXB2 was performed using a TXB2 enzyme immunoassay kit (manufactured by Cayman Chemical Company). The release ratio (%) of TXB2 from the eosinophils was determined by the following formula: release ratio (%) of TXB2=[(average value of test compound administration group−average value of negative control group)/(average value of positive control group−average value of negative control group)]×100
As used herein, the positive control group means a group to which stimulation with LTB4 was applied but the same volume of a medium was given instead of the test compound, and the negative control group means a group to which stimulation with LTB4 was not applied, the same volume of a medium was given instead of LTB4, and the same volume of a medium was given instead of the test compound. When the release ratio of TXB2 is smaller than 0, it means that the measured TXB2 concentration was lower than that of the negative control group. When the TXB2 concentration in the sample was the measurement limit or less, N.D. is indicated.

As to `COc1cccc(NC(=O)/C=C(/C)c2cc3c(S(=O)(=O)NCCc4ccc(OC)c(OC)c4)ccc(OCCCCl)c3o2)c1` [Example 52, (Z)-3-{7-(3-chloropropoxy)-4-[2-(3,4-dimethoxyphenyl)ethylsulfamoyl]benzofuran-2-yl}-N-(3-methoxyphenyl)-2-butenamide], the melting point lay within 146.1 to 150 °C. Also, the “Amount of TXB2 release (%)” value in the data set on LTB4 receptor is 60.6%.

For the compound `CCOC(=O)CCCOc1ccc(/C(C)=C/C(=O)N(CC)CC)c2cc(C(C)=O)oc12` [Example 14, Ethyl (E)-4-[2-acetyl-4-(2-diethylcarbamoyl-1-methylvinyl)benzofuran-7-yloxy]butyrate], in the data set with LTB4 receptor, the “Amount of TXB2 release (%)” value is 44.81%.

Regarding `CCN(CC)C(=O)/C=C(\C)c1ccc2oc(C(C)=O)c(NC(=O)Cc3ccc(OC)cc3)c2c1` [Example 21, (E)-3-{2-acetyl-3-[2-(4-methoxyphenyl)acetylamino]-benzofuran-5-yl}-N,N-diethyl-2-butenamide], the melting point is 121.8 to 122.3 °C. The “Amount of TXB2 release (%)” value in the data set with LTB4 receptor is given as 56.57%.

Turning to `COc1ccc(CCNC(=O)/C=C(\C)c2ccc(OC(C)c3ccccc3)c3oc(C(C)=O)cc23)cc1OC` (stereo not drawn) [Example 8, (E)-3-[2-acetyl-7-(l-phenylethoxy)benzofuran-4-yl]-N-[2-(3,4-dimethoxyphenyl)ethyl]-2-butenamide], the “Amount of TXB2 release (%)” value in the data set with LTB4 receptor was determined as 41.73%.

Take `CCN(CC)C(=O)/C=C(\C)c1ccc(OCCCC(=O)O)c2oc(/C(C)=C/C(=O)O)cc12` [Example 2, (E)-3-[7-(3-carboxypropoxy)-4-(2-diethylcarbamoyl-1-methylvinyl)benzofuran-2-yl]-2-butenoic acid]: the melting point fell in the range of 199.5 to 201.9 °C. Also, the “Amount of TXB2 release (%)” value with LTB4 receptor is reported as 5.77%.

The compound `O=C(/C=C/c1ccccc1)Nc1c(C(=O)O)oc2ccccc12` [Example 121, (E)-3-(3-phenylacryloylamino)benzofurane-2-carboxylic acid] had a melting point of 197.8 to 200.2 °C. Moreover, the “Amount of TXB2 release (%)” value in the data set on LTB4 receptor is listed as 5.77%.

The compound `C/C=C/C(=O)NC(C)c1cc2cccc(OC)c2o1` (stereo not drawn) [Example 130, (E)-[1-(7-methoxybenzofuran-2-yl)ethyl]-2-butenamide] displayed a melting point of 128.7 to 130.2 °C. Besides, in the data set on LTB4 receptor, the “Amount of TXB2 release (%)” value is 35.44%.

`CC(=O)c1cc2c(/C(C)=C/C(=O)N3CCN(Cc4ccccc4)CC3)ccc(OC(C)c3ccccc3)c2o1` (stereo not drawn) [Example 10, (E)-3-[2-acetyl-7-(1-phenylethoxy)benzofuran-4-yl]-1-(4-benzylpiperazin-1-yl)-2-buten-1-one]: the melting point lay in the range of 196 to 202.1 °C. For the same compound, the “Amount of TXB2 release (%)” value in the data set on LTB4 receptor is recorded as 23.43%.

As to `CCNS(=O)(=O)c1ccc(OCCCC(=O)OCC)c2oc(/C(C)=C\C(=O)N(CC)CC)cc12` [Example 48, Ethyl (Z)-4-[2-(2-diethylcarbamoyl-1-methylvinyl)-4-ethylsulfamoylbenzofuran-7-yloxy]butyrate], the “Amount of TXB2 release (%)” value in the data set with LTB4 receptor was 53.91%.

Consider `CC(=CC(=O)N1CCOCC1)c1cc2cccc(OC(c3ccccc3)c3ccccc3)c2o1` (stereo in doubt) [Example 42, (E)-3-(7-benzhydryloxybenzofuran-2-yl)-1-morpholino-2-buten-1-one], for which, in the data set on LTB4 receptor, the “Amount of TXB2 release (%)” value is given as 13.83%.

`CC(=O)c1cc2c(/C(C)=C/C(=O)N3CCOCC3)ccc(OC(c3ccccc3)c3ccccc3)c2o1` [Example 7, (E)-3-(2-acetyl-7-benzhydryloxybenzofuran-4-yl)-1-morpholino-2-buten-1-one] yielded a melting point of 167 to 169.3 °C. Moreover, the “Amount of TXB2 release (%)” value in the data set on LTB4 receptor was 9.89%.

In the case of `COc1cccc(NC(=O)/C=C/C=C(\Cl)c2cc3cccc(OC)c3o2)c1` [Example 57, (2E,4Z)-5-chloro-5-(7-methoxybenzofuran-2-yl)penta-2,4-dienoic acid (3-methoxyphenyl)amide], the melting point lay within 194.3 to 197.3 °C. In addition, the “Amount of TXB2 release (%)” value in the data set with LTB4 receptor is given as 78.01%.

For `CC(=O)c1oc2ccc(/C(C)=C/C(=O)N3CCN(c4ccccc4)CC3)cc2c1NC(=O)c1cnoc1C` [Example 75, (E)-N-{2-acetyl-5-[1-methyl-3-oxo-3-(4-phenylpiperazin-1-yl)-1-propenyl]benzofuran-3-yl}-5-methylisoxazole-4-carboxamide], the melting point lay within 201.5 to 204.4 °C. The “Amount of TXB2 release (%)” value with LTB4 receptor is given as 27.03%.

`CCN(CC)C(=O)/C=C(\C)c1ccc(OCC(=O)c2ccc3c(c2)OCO3)c2oc(C(C)=O)cc12` [Example 13, (E)-3-[2-acetyl-7-(2-benzo[1,3]dioxol-5-yloxoethoxy)benzofuran-4-yl]-N,N-diethyl-2-butenamide] gave a melting point of 142 to 144 °C. Further, the “Amount of TXB2 release (%)” value in the data set with LTB4 receptor stood at 31.8%.

As for `CCOC(=O)CCCOc1ccc(Br)c2cc(/C(C)=C/C(=O)N(CC)CC)oc12` [Example 35], the “Amount of TXB2 release (%)” value in the data set with LTB4 receptor came to 1.02%.

`CCOC(=O)CCCOc1cccc2cc(/C(C)=C/C(=O)Nc3ccc(OC)cc3)oc12` [Example 28, Ethyl (E)-4-{2-[2-(4-methoxyphenylcarbamoyl)-1-methylvinyl]benzofuran-7-yloxy}butyrate]: the melting point was 141.3 to 141.5 °C. Besides, the “Amount of TXB2 release (%)” value in the data set with LTB4 receptor is given as −0.23%.

Regarding `CCOC(=O)c1oc2ccc(Br)cc2c1NC(=O)/C(C#N)=C(/C)O` [Example 97, Ethyl (Z)-5-bromo-3-(2-cyano-3-hydroxy-2-butenoylamino)benzofurane-2-carboxylate], the melting point was 186.3 to 187.2 °C. In the data set with LTB4 receptor, the “Amount of TXB2 release (%)” value is on record as −0.12%.

Turning to `CC(=O)c1oc2ccc(Br)cc2c1NC(=O)/C=C/c1ccccc1` [Example 114, (E)-N-(2-acetyl-5-bromobenzofuran-3-yl)-3-phenylacrylamide], the melting point lay within 180.2 to 181.1 °C. In addition, the “Amount of TXB2 release (%)” value in the data set with LTB4 receptor was found to be 51.42%.

As to `CC(=O)c1oc2ccc(/C(C)=C/C(=O)N3CCN(c4ccccc4)CC3)cc2c1N` [Example 18, (E)-3-(2-acetyl-3-aminobenzofuran-5-yl)-1-(4-phenylpiperazin-1-yl)-2-buten-1-one], the “Amount of TXB2 release (%)” value with LTB4 receptor was 53.91%.

As for `CCN(CC)C(=O)/C=C(/C)c1cc2cccc(OC(C)C)c2o1` [Example 34, (Z)-3-(7-isopropoxybenzofuran-2-yl)-N,N-diethyl-2-butenamide], the “Amount of TXB2 release (%)” value in the data set on LTB4 receptor was −0.063%.

In the case of `COc1ccc(CCNC(=O)/C=C(\C)c2ccc3oc(C(C)=O)c(NC(=O)c4cnoc4C)c3c2)cc1OC` [Example 72, (E)-N-(2-acetyl-5-(2-[2-(3,4-dimethoxyphenyl)ethylcarbamoyl]-1-methylvinyl)benzofuran-3-yl)-5-methylisoxazole-4-carboxamide], in the data set on LTB4 receptor, the “Amount of TXB2 release (%)” value amounted to 84.46%.

On to `CC(=O)c1oc2ccccc2c1NC(=O)c1cnoc1C` [Example 69, N-(2-acetylbenzofuran-3-yl)-5-methylisoxazole-4-carboxamide], for which the melting point lay in the range of 174 to 177 °C.

With `CCN(CC)C(=O)/C=C(\C)c1cc2cccc(OC(c3ccccc3)c3ccccc3)c2o1` [Example 37, (E)-3-(7-benzhydryloxybenzofuran-2-yl)-N,N-diethyl-2-butenamide], in the data set on LTB4 receptor, the “Amount of TXB2 release (%)” value came to 15.69%.

Turning to `CC(=O)OC(C)c1oc2ccccc2c1NC(=O)c1cnoc1C` (stereo not drawn) [Example 76, 1-{3-[(5-methylisoxazole-4-carbonyl)amino]benzofuran-2-yl}ethyl acetate], the melting point was in the range of 130.2 to 132.9 °C.

The compound `COc1cccc(NC(=O)c2oc3ccc(Br)cc3c2NC(=O)c2cnoc2C)c1` [Example 183, 5-methyl-isoxazole-4-carboxylic acid [5-bromo-2-(3-methoxyphenylcarbamoyl)benzofuran-3-yl]amide] showed a melting point of 223 to 229 °C.

Consider `COc1ccc(Br)c2c(NC(C)=O)c(C(C)=O)oc12` [Example 211, N-(2-acetyl-4-bromo-7-methoxybenzofuran-3-yl)acetamide], for which the melting point was in the range of 235.3 to 237.8 °C.

In the case of `COc1ccc(CCNC(=O)/C=C(\C)c2cc3cccc(OC(c4ccccc4)c4ccccc4)c3o2)cc1OC` [Example 47, (E)-3-(7-benzhydryloxybenzofuran-2-yl)-N-[2-(3,4-dimethoxyphenyl)ethyl]-2-butenamide], the melting point fell in the range of 70.8 to 73.5 °C.

Regarding `O=C(CCCl)Nc1c(C(=O)/C=C/c2ccccc2)oc2ccc(Br)cc12` [Example 201, (E)-N-[5-bromo-2-(3-phenylacryloyl)-benzofuran-3-yl]-3-chloropropionamide], the melting point is 204.7 to 206.8 °C.

In turn, `COc1ccc2oc(-c3csc(NC(=O)c4cnoc4C)n3)c(-c3ccc(Cl)cc3)c2c1` [Example 220, 5-methylisoxazole-4-carboxylic acid {4-[3-(4-chlorophenyl)-5-methoxybenzofuran-2-yl]thiazol-2-yl}amide] gave a melting point of 216.8 to 218.7 °C.

In general, melting point refers to the temperature of the solid-liquid transition.
